Data on 2 compounds can be found in patent US7713969B2, “Compositions and methods for treatment of cancer” (ArQule, Inc., priority 2005, dated 2010).

Data set [1] relates to HT29 human colon cancer xenograft. The data set can be described thus: Colon cancer xenograft model (Example 87). The format is in vivo, mice. Conditions: for optimal tumor growth inhibition: daily 5 days on/2 off, 20 treatments. The procedure:
In this human colon cancer xenograft model HT29 human colon cancer cells were inoculated subcutaneously into female athymic nude mice (5×10^6 cells/mouse) and allowed to form palpable tumors. Once the tumors reached approximately 60 mm^3, the animals were treated orally with either (−)-trans-3-(5,6-dihydro-4H-pyrrolo[3,2,1-ij]quinolin-1-yl)-4(1H-indol-3-yl)pyrrolidine-2,5-dione at 200 mg/kg or 300 mg/kg, or vehicle control daily (5 consecutive days, followed by a 2 day dosing holiday). (−)-trans-3-(5,6-dihydro-4H-pyrrolo[3,2,1-ij]quinolin-1-yl)-4(1H-indol-3-yl)pyrrolidine-2,5-dione was formulated in PEG 400:20% Vitamin E TPGS (60:40). The animals received a total of 20 treatments of either (−)-trans-3-(5,6-dihydro-4H-pyrrolo[3,2,1-ij]quinolin-1-yl)-4(1H-indol-3-yl) pyrrolidine-2,5-dione or vehicle control. Tumors were measured throughout treatment and the post-treatment observation period. Each point represents the mean±SEM of ten tumors. (See FIG. 11)

Data set [2] has as its system PACA-2 human pancreatic cancer xenograft. The data set can be described thus: Pancreatic cancer xenograft model (Example 88). The format is in vivo, mice. The note with it: for optimal tumor growth inhibition: daily 5 days on/2 off, 20 doses. The method, then:
PACA-2 human pancreatic cancer cells were inoculated subcutaneously into female athymic nude mice (5×10^6 cells/mouse) and allowed to form palpable tumors. Once the tumors reached approximately 60 mm^3, the animals were treated orally with (−)-trans-3-(5,6-dihydro-4H-pyrrolo[3,2,1-ij]quinolin-1-yl)-4(1H-indol-3-yl) pyrrolidine-2,5-dione at 200 mg/kg or 300 mg/kg or vehicle control daily (5 consecutive days, followed by a 2 day dosing holiday). (−)-trans-3-(5,6-dihydro-4H-pyrrolo[3,2,1-ij]quinolin-1-yl)-4(1H-indol-3-yl)pyrrolidine-2,5-dione was formulated in PEG 400:20% Vitamin E TPGS (60:40). The animals received a total of 20 doses of (−)-trans-3-(5,6-dihydro-4H-pyrrolo[3,2,1-ij]quinolin-1-yl)-4(1H-indol-3-yl)pyrrolidine-2,5-dione or vehicle control. Tumors were measured throughout treatment and the post-treatment observation period. Each point represents the mean±SEM of ten tumors. (See FIG. 12)

In the next data set the test system is ERK1/2. Put plainly: ERK1/2 phosphorylation, Western blot (Example 80). Type of data set: cell-based, human. The note with it: MDA-MB-231 cells, 100 ng/ml HGF/SF 10 minutes. The procedure:
MDA-MB-231 cells were serum-deprived overnight (16 hours) in the absence or in the presence of the indicated concentrations of the separate enantiomers (+)-trans-3-(5,6-dihydro-4H-pyrrolo[3,2,1-ij]quinolin-1-yl)-4(1H-indol-3-yl)pyrrolidine-2,5-dione and (−)-trans-3-(5,6-dihydro-4H-pyrrolo[3,2,1-ij]quinolin-1-yl)-4(1H-indol-3-yl)pyrrolidine-2,5-dione. Cells were treated with 100 ng/ml recombinant human Hepatocyte Growth Factor/Scatter Factor (HGF/SF) (R&D Systems #294-HG) for 10 minutes. Whole cell extracts were prepared in lysis buffer (20 mM Trwas-HC1 pH 7.5, 150 mM NaCl, 1 mM Na2EDTA, 1 mM EGTA, 1% Triton X-100, 2.5 mM sodium pyrophosphate, 1 mM beta-glycerophosphate, 1 mM Na3VO4, 1 μg/ml leupeptin, 1 mM phenylmethylsulfonyl fluoride) and sonicated. Protein concentration was measured by Bradford assay using the BioRad reagent (BioRad, Hercules, Calif.), according to the manufacturer's directions. Samples (50 μg of protein) were resolved by 8% SDS-PAGE under reducing conditions, and transferred onto a PVDF membrane (BioRad). […] Proteins were detected by incubation overnight at 4° C. in TBS-T with 5% milk and either a polyclonal antibody against phosphorylated c-Met (#3121), phosphorylated Erk1/2 (#9101), total Erk1/2 protein (#9102) (Cell Signaling Technology); or a monoclonal antibody against […] (A-5441) (Sigma), which was used as a control for total protein loading. […]

Data set [3] concerns MDA-MB-231 human breast cancer xenograft. The data set can be described thus: MDA-MB-231 xenograft, intraperitoneal 160 mg/kg (Example 81). Type of data set: in vivo, mice. The note with it: 160 mg/kg intraperitoneally, q3d×10, lipiodol vehicle. The method, then: Athymic female nude mice (CRL:NU/NU-nuBR) were injected subcutaneously in the flank with MDA-MB-231 human breast cancer cells (8×10^6 cells/mouse). Prior to injection, MDA-MB-231 cells were cultured in DMEM (Invitrogen #11965-092) supplemented with 10% (v/v) heat inactivated fetal bovine serum (FBS), 1% Hepes buffer solution (Invitrogen #15630-080) and 1% Penicillin/Streptomycin (Invitrogen #15140-122) at 37° C. in 5% CO2. Tumors were allowed to grow to approximately 50 mm^3 in size. Animals were randomized into three groups of five animals per group. At day ten post injection, mice with established tumors were treated intraperitoneally with (±)-cis-3-(5,6-dihydro-4H-pyrrolo[3,2,1-ij]quinolin-1yl)-4(1H-indol-3-yl) pyrrolidine-2,5-dione (160 mg/kg), (±)-trans-3-(5,6-dihydro-4H-pyrrolo[3,2,1-ij]quinolin-1-yl)-4(1H-indol-3-yl)pyrrolidine-2,5-dione (160 mg/kg) administered in iodinated poppy seed oil (lipiodol) as the vehicle at 10 mg/ml, or vehicle control. Drug or vehicle was administered every three days for a total of ten doses (q3d×10). Tumor size was evaluated periodically during the study. For each subject, tumor volume was calculated using the formula (L×W^2)/2 where L and W were the length and width of the tumor, respectively. The arithmetic mean tumor volume was calculated for each treatment group+/−standard error of the mean (SEM). […]

As for `O=C1NC(=O)C(c2cn3c4c(cccc24)CCC3)C1c1c[nH]c2ccccc12` (single isomer, unassigned; (-)), the “change in body weight” value in data set [1] (200 mg/kg or 300 mg/kg oral administration) was “no significant change in body weight”; in data set [2] (200 mg/kg and 300 mg/kg oral administration) it was “no significant change in body weight”. Besides, the “optimal tumor growth inhibition” value in data set [1] (200 mg/kg orally) came out at 39%; in data set [1] (300 mg/kg orally), 55%; in data set [2] (200 mg/kg orally), 58%; in data set [2] (300 mg/kg orally) it was 60%. Besides, the “phosphorylation of ERK1/2” value in the data set with ERK1/2 was “decreases the phosphorylation of ERK1/2”.

Take `O=C1NC(=O)[C@@H](c2cn3c4c(cccc24)CCC3)[C@@H]1c1c[nH]c2ccccc12` (racemic) [(±)-Trans-3-(5,6-dihydro-4H-pyrrolo[3,2,1-ij]quinolin-1-yl)-4(1H-indol-3-yl)pyrrolidine-2,5-dione]: the “reduction of normalized mean tumor volume compared to vehicle treated control” value in data set [3] is 43.5%.
